From patent US9587005B2 (priority 2010, dated 2017)
Read-outs that look alike come from different tables or passages of the source. *1 amine or outer side, *2 acyl side, *3 side chain or, on linkers, in order; H or OH if unused. Where a SMILES comes first, the peptide text is derived from it. Side-chain parts run from the residue outwards. [ ]: non-standard residue; d: D form. The star is where a group is joined. X5 = CCCCCCCCCCCCCCCC(=O)N[C@@H](CCC(=O)NCCCC[C@H](NC(=O)CC[C@H](NC(=O)CCCCCCCCCCCCCCC)C(=O)O)C(=O)*)C(=O)O; γGlu = O=C(O)[C@H](CCC(=O)[*:2])N[*:1]; Palmitoyl = CCCCCCCCCCCCCCCC(=O)*; Aib = CC(C)(N)C(=O)O

Key:
Type in all cases: cell-based
GLP-1 receptor = molecular target: T1, GLP-1 receptor (Homo sapiens, UniProt P43220); test: cAMP induction, firefly luciferase reporter assay in HEK293 cells co-transfected with GLP-1 receptor
T1 construct: expressed in transfected cells; host or cells: HEK293
T1 sequence (P43220 24-463): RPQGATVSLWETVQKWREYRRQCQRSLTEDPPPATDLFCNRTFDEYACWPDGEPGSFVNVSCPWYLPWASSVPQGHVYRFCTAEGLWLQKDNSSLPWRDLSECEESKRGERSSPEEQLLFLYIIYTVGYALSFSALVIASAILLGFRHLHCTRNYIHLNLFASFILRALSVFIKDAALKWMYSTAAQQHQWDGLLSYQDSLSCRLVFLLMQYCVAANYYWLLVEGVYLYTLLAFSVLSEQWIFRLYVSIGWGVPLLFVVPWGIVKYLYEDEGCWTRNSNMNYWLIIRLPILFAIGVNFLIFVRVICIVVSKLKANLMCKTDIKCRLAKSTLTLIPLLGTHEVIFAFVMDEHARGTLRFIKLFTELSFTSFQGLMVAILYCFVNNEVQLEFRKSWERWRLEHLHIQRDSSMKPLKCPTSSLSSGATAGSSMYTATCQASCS
Text: (§1) This example describes an exemplary method of testing the biological activity of the peptides of the present disclosures, which method involves assaying cAMP synthesis.

glucagon receptor = molecular target: T2, glucagon receptor (Homo sapiens, UniProt P47871); test: cAMP induction, firefly luciferase reporter assay in HEK293 cells co-transfected with glucagon receptor
T2 construct: expressed in transfected cells; host or cells: HEK293
T2 sequence (P47871 26-477): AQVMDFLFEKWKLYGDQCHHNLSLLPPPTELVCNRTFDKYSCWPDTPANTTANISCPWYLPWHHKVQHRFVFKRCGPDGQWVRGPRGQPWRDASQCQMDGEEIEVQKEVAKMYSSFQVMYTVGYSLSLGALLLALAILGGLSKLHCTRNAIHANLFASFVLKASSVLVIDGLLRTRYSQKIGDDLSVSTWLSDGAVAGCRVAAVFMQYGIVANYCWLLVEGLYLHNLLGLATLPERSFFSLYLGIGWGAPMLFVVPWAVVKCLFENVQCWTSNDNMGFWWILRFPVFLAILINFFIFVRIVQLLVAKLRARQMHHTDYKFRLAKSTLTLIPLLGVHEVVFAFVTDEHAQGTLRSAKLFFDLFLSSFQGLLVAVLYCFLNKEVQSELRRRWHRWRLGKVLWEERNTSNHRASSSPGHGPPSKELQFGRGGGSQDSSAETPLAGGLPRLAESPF
Text: as §1

GIP receptor = molecular target: T3, GIP receptor (Homo sapiens, UniProt P48546); test: cAMP induction, firefly luciferase reporter assay in HEK293 cells co-transfected with GIP receptor
T3 sequence (P48546 22-466): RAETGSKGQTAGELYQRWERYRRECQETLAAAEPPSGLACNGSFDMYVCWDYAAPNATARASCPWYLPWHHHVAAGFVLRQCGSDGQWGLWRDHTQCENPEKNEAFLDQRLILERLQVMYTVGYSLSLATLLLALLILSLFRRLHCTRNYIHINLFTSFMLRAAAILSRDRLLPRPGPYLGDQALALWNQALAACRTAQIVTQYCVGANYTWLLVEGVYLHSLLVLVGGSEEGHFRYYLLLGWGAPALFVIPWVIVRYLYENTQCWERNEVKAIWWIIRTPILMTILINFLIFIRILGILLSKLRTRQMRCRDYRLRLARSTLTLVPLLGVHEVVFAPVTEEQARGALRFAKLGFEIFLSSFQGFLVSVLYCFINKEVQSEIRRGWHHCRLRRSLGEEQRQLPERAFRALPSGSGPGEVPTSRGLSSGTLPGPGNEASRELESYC

| SMILES | EC50 (GLP-1 receptor; Table 12, Example 19, read-out: EC50 (cAMP, nmole) GLPR) | EC50 (glucagon receptor; Table 12, Example 19, read-out: EC50 (cAMP, nmole) GCGR) | EC50 (GIP receptor; EC50 (cAMP, nmole) GIPR, Table 12, Example 19) | EC50 (GLP-1 receptor; GLP-1 Receptor EC50, Table 10, Example 16) | EC50 (glucagon receptor; Glucagon Receptor EC50, Table 10, Example 16) | EC50 (GIP receptor; Table 10, Example 16, read-out: GIP-1 Receptor EC50) |
| --- | --- | --- | --- | --- | --- | --- |
| CCCCCCCCCCCCCCCC(=O)N[C@@H](CCC(=O)NCCCC[C@H](NC(=O)CC[C@H](NC(=O)CCCCCCCCCCCCCCC)C(=O)O)C(=O)NCCCC[C@H](NC(=O)[C@H](CO)NC(=O)[C@@H]1CCCN1C(=O)[C@@H]1CCCN1C(=O)[C@@H]1CCCN1C(=O)[C@H](C)NC(=O)CNC(=O)[C@H](CO)NC(=O)[C@H](CO)NC(=O)[C@@H]1CCCN1C(=O)CNC(=O)CNC(=O)[C@H](CC(=O)O)NC(=O)[C@H](CC(C)C)NC(=O)[C@H](CC(C)C)NC(=O)[C@H](Cc1c[nH]c2ccccc12)NC(=O)[C@H](CCC(N)=O)NC(=O)[C@@H](NC(=O)[C@H](Cc1ccccc1)NC(=O)[C@H](CC(=O)O)NC(=O)[C@H](CCC(N)=O)NC(=O)[C@H](C)NC(=O)[C@H](C)NC(=O)[C@H](CCCNC(=N)N)NC(=O)[C@H](CCC(=O)O)NC(=O)[C@H](CC(=O)O)NC(=O)[C@H](CC(C)C)NC(=O)[C@H](Cc1ccc(O)cc1)NC(=O)[C@H](CCCCN)NC(=O)[C@H](CO)NC(=O)[C@H](Cc1ccc(O)cc1)NC(=O)[C@H](CC(=O)O)NC(=O)[C@H](CO)NC(=O)[C@@H](NC(=O)[C@H](Cc1ccccc1)NC(=O)[C@@H](NC(=O)CNC(=O)[C@H](CCC(N)=O)NC(=O)C(C)(C)NC(=O)[C@@H](N)Cc1c[nH]cn1)[C@@H](C)O)[C@@H](C)O)C(C)C)C(N)=O)C(=O)O [SEQ ID NO: 161] (H-H[Aib]QGTFTSDYSKYLDERAAQDFVQWLLDGGPSSGAPPPSK(X5)-NH2) | 0.007 nM | 0.011 nM | 0.01 nM |  |  |  |
| CCCCCCCCCCCCCCCC(=O)N[C@@H](CCC(=O)NCCCC[C@H](NC(=O)[C@H](CC(=O)O)NC(=O)[C@H](CC(C)C)NC(=O)[C@H](Cc1ccc(O)cc1)NC(=O)[C@H](CCCCN)NC(=O)[C@H](CO)NC(=O)[C@H](Cc1ccc(O)cc1)NC(=O)[C@H](CC(=O)O)NC(=O)[C@H](CO)NC(=O)[C@@H](NC(=O)[C@H](Cc1ccccc1)NC(=O)[C@@H](NC(=O)CNC(=O)[C@H](CCC(N)=O)NC(=O)C(C)(C)NC(=O)[C@@H](N)Cc1c[nH]cn1)[C@@H](C)O)[C@@H](C)O)C(=O)N[C@@H](CCCNC(=N)N)C(=O)N[C@@H](C)C(=O)N[C@@H](C)C(=O)N[C@@H](CCC(N)=O)C(=O)N[C@@H](CC(=O)O)C(=O)N[C@@H](Cc1ccccc1)C(=O)N[C@H](C(=O)N[C@@H](CCC(N)=O)C(=O)N[C@@H](Cc1c[nH]c2ccccc12)C(=O)N[C@@H](CC(C)C)C(=O)N[C@@H](CC(C)C)C(=O)N[C@@H](CC(=O)O)C(=O)NCC(=O)NCC(=O)N1CCC[C@H]1C(=O)N[C@@H](CO)C(=O)N[C@@H](CO)C(=O)NCC(=O)N[C@@H](C)C(=O)N1CCC[C@H]1C(=O)N1CCC[C@H]1C(=O)N1CCC[C@H]1C(=O)N[C@@H](CO)C(N)=O)C(C)C)C(=O)O [SEQ ID NO: 153] (H-H[Aib]QGTFTSDYSKYLDK([γGlu-Palmitoyl])RAAQDFVQWLLDGGPSSGAPPPS-NH2; N-terminus assumed) |  |  |  | 0.007 nM | 0.012 nM | 0.276 nM |
